Data taken from US5075287A, “Muramyl peptide derivatives and immunoregulating compositions containing them” (priority 1989, dated 1991).
Where two headings read alike, the source gives them in different places.

Key:
[1] = test system: influenza HA vaccine (B/Nagasaki/1/87 strain); assay type: in vivo, female CDF1 mice; conditions: Experiment 1, 5000-fold dilution
[2] = test system: L-1210 mouse leukemia cells; experiment: Activation of macrophages (growth inhibition of tumor cells by intraperitoneal macrophages of treated mice, MTT assay); assay type: cell-based; conditions: macrophages taken 3 days after i.p. 0.2 ml of 500 μg/ml, macrophage:L-1210 20:1, 72 hours
Protocol: A compound of the present invention was dissolved in lipidmicrosphere to obtain a solution in a concentration of 500μg/ml, and 0.2 ml of such solution was intraperitoneally administered to each mouse in one group consisting of seven female CDF1 mice. Intraperitoneal macrophages obtained three days after the administration and L-1210 mouse leukemia cells were mixed in the ratio of cell numbers of 20:1, respectively. Two hundred μl of the mixture was placed in each well of one sheet of 96 well microtiter plate. After 72 hours, the increase of the cell number in each well was determined by a MTT assay method. The ratio of the cell number for the mixture of the L-1210 cells and the macrophage relative to the cell number for the L-1210 cells only(growth inhibitory ratio) was determined, and the results are shown in Table 3.

[3] = test system: hepatitis B virus surface antigen (HBs); experiment: Hepatitis-vaccine enhancing activity (adjuvant activity): anti-HBs IgG in mouse serum by ELISA; assay type: in vivo, female CDF1 mice; conditions: Experiment 1, 5000-fold dilution
How it was run: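 Female CDF1 mice (n=7) given 0.2 ml i.p. of compound in lipid microspheres (1 mg/ml) mixed 1:1 with HBs antigen (50 μg/ml), boosted identically at 3 weeks. Sera from weekly fundus bleeds before and after boost. Anti-HBs IgG measured by ELISA.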

[4] = 1 W after i.p. administration, compound in lipidmicrosphere + HA vaccine
[5] = 4 W (after secondary stimulation at 3 weeks)
[6] = 5 W (after secondary stimulation at 3 weeks)
[7] = 1 W after i.p. administration, compound in lipidmicrosphere + HBs

Row | Compound | Anti HA serum antigen value (average value ± S.D.) [1, 4] [O.D 415 nm] | Anti HA serum antigen value (average value ± S.D.) ([1]; 2 W) [O.D 415 nm] | Anti HA serum antigen value (average value ± S.D.) ([1]; 3 W) [O.D 415 nm] | Anti HA serum antigen value (average value ± S.D.) [1, 5] [O.D 415 nm] | Anti HA serum antigen value (average value ± S.D.) [1, 6] [O.D 415 nm] | Growth inhibitory ratio of L-1210 mouse leukemia cells [2] [%] | Anti-HBs IgG antibody level in serum (ELISA absorbance at 415 nm) [3, 7] [O.D 415 nm] | Anti-HBs IgG antibody level in serum (ELISA absorbance at 415 nm) ([3]; 2 W) [O.D 415 nm] | Anti-HBs IgG antibody level in serum (ELISA absorbance at 415 nm) ([3]; 3 W) [O.D 415 nm] | Anti-HBs IgG antibody level in serum (ELISA absorbance at 415 nm) [3, 5] [O.D 415 nm] | Anti-HBs IgG antibody level in serum (ELISA absorbance at 415 nm) [3, 6] [O.D 415 nm]
1 | CCCCCCCCCCCCCCCCCC(=O)OC[C@H]1O[C@H](OC(=O)C[C@@H](CCCCCCCCCCC)OC(=O)CCCCCCCCCCCCC)[C@H](NC(C)=O)[C@@H](O[C@H](C)C(=O)N[C@@H](C)C(=O)N[C@H](CCC(=O)OC)C(N)=O)[C@@H]1O [Example 13, N-[2-0-{2-Acetamido-2,3-dideoxy-6-0-octadecanoyl-1-0-((3R)-3-tetradecanoyloxytetradecanoyl)-α-D-glucopyranos-3-yl}-D-lactoyl]-L-alanyl-D-isoglutamine methylester] | 0 | 0.088 ± 0.004 | 0.140 ± 0.001 | 0.868 ± 0.010 | 0.824 ± 0.002 | 39.7 | 0 | 0.081 ± 0.003 | 0.126 ± 0.003 | 0.635 ± 0.011 | 0.742 ± 0.016
2 | CCCCCCCCCCCCCC(=O)O[C@H](CCCCCCCCCCC)CC(=O)S[C@@H]1O[C@H](CO)[C@@H](O)[C@H](O[C@H](C)C(=O)N[C@@H](C)C(=O)N[C@H](CCC(=O)OC)C(N)=O)[C@H]1NC(C)=O [Example 4, N-[2-0-{2-Acetamido-2,3-dideoxy-1-S-[[3R)-3-tetradecanoyloxytetradecanoyl)-1-thio-β-D-glucopyranos-3-yl}-D-lactoyl]-L-alanyl-D-isoglutamine methylester] | 0.004 ± 0.001 | 0.215 ± 0.001 | 0.381 ± 0.004 | 1.204 ± 0.012 | 1.150 ± 0.016 | 45.2 | 0 | 0.073 ± 0.001 | 0.111 ± 0.007 | 0.848 ± 0.009 | 0.935 ± 0.022
3 | CCCCCCCCCCCCCCC(CCCCCCCCCCCCCC)C(=O)O[C@H]1O[C@H](COC(=O)CCCCCCCCCCCCC)[C@@H](O)[C@H](O[C@H](C)C(=O)N[C@@H](C)C(=O)N[C@H](CCC(=O)OC)C(N)=O)[C@H]1NC(C)=O [Example 6, N-[2-0-{2-Acetamido-2,3-dideoxy-6-0-tetradecanoyl-1-0-(2-tetradecylhexadecanoyl)-α-D-glucopyranos-3-yl}-D-lactoyl]-L-alanyl-D-isoglutamine methylester] | 0.001 ± 0.001 | 0.013 ± 0.002 | 0.259 ± 0.004 | 1.025 ± 0.013 | 1.159 ± 0.013 | 63.0 | 0 | 0.020 ± 0.002 | 0.069 ± 0.001 | 0.477 ± 0.005 | 0.529 ± 0.005
4 | CCCCCCCCCCCCCCCCCC(=O)OC[C@H]1O[C@@H](SC(=O)C(CCCCCCCCCCCCCC)CCCCCCCCCCCCCC)[C@H](NC(C)=O)[C@@H](O[C@H](C)C(=O)N[C@@H](C)C(=O)N[C@H](CCC(=O)OC)C(N)=O)[C@@H]1O [Example 10, N-[2-0-{2-Acetamido-2,3-dideoxy-6-0-octadecanoyl-1-S-(2-tetradecylhexadecanoyl)-1-thio-β-D-glucopyranos-3-yl}-D-lactoyl]-L-alanyl-D-isoglutamine methylester] | 0.005 ± 0.001 | 0.153 ± 0.003 | 0.280 ± 0.000 | 1.149 ± 0.018 | 1.203 ± 0.014 | 76.6 | 0 | 0.061 ± 0.002 | 0.114 ± 0.003 | 0.778 ± 0.024 | 0.878 ± 0.009
5 | CCCCCCCCCCCCCCCCCC(=O)OC[C@H]1O[C@H](OC(=O)C(CCCCCCCCCCCCCC)CCCCCCCCCCCCCC)[C@H](NC(C)=O)[C@@H](O[C@H](C)C(=O)N[C@@H](C)C(=O)N[C@H](CCC(=O)OC)C(N)=O)[C@@H]1O [Example 7, N-[2-0-{2-Acetamido-2,3-dideoxy-6-0-octadecanoyl-1-0-(2-tetradecylhexadecanoyl)-α-D-glucopyranos-3-yl}-D-lactoyl]-L-alanyl-D-isoglutamine methylester] | 0.001 ± 0.001 | 0.112 ± 0.003 | 0.286 ± 0.001 | 1.039 ± 0.010 | 1.128 ± 0.026 | 90.2 | 0 | 0.016 ± 0.003 | 0.071 ± 0.004 | 0.426 ± 0.000 | 0.470 ± 0.010
6 | CCCCCCCCCCCCCCC(CCCCCCCCCCCCCC)C(=O)O[C@H]1O[C@H](CO)[C@@H](O)[C@H](O[C@H](C)C(=O)N[C@@H](C)C(=O)N[C@H](CCC(=O)OC)C(N)=O)[C@H]1NC(C)=O [Example 1] | 0.007 ± 0.003 | 0.174 ± 0.003 | 0.232 ± 0.003 | 1.243 ± 0.036 | 1.201 ± 0.002 | 40.0 | 0.001 ± 0.001 | 0.018 ± 0.000 | 0.074 ± 0.002 | 0.815 ± 0.011 | 0.843 ± 0.005
7 | CCCCCCCCCCCCCCC(CCCCCCCCCCCCCC)C(=O)S[C@@H]1O[C@H](CO)[C@@H](O)[C@H](O[C@H](C)C(=O)N[C@@H](C)C(=O)N[C@H](CCC(=O)OC)C(N)=O)[C@H]1NC(C)=O [Example 2] | 0.003 ± 0.001 | 0.172 ± 0.004 | 0.420 ± 0.005 | 0.447 ± 0.029 | 1.418 ± 0.035 | 41.3 | 0 | 0.023 ± 0.000 | 0.076 ± 0.001 | 0.975 ± 0.008 | 0.930 ± 0.004
